These results are taken from PMC11907390, “Proteome‐Wide Profiling of Olaparib Interactors Using a Biotinylated Photoaffinity Probe” (Chembiochem, 2025).

The target in one experiment is PARP1 (Homo sapiens, UniProt P09874). The experiment in a line: PARP1 activity assay (Figure S6); also photoaffinity pull-down from HeLa lysate with MS and Western blot. The experiment is classed as biochemical. (A western blot detects proteins with antibodies after separation by electrophoresis.)
In a further experiment the target is CDK8 (Homo sapiens, UniProt P49336). The experiment in a line: photoaffinity labeling, streptavidin pull-down and MS in HeLa lysate, enriched over probe […] in two biological replicates. The experiment is classed as cell-based.
Chain of CDK8 (P49336 whole entry): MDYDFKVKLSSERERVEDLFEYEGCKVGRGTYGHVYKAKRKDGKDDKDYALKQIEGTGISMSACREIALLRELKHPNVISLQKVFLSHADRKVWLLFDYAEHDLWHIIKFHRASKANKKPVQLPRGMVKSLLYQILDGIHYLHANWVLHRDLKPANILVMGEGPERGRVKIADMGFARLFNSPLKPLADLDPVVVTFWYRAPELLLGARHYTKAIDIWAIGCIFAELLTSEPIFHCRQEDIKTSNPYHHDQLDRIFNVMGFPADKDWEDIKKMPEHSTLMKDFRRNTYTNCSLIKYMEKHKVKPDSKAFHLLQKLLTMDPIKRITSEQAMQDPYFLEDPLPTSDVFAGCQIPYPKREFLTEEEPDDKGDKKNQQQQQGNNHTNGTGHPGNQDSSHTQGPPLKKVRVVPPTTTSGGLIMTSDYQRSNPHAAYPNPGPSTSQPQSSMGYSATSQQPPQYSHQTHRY
The target in the next experiment is PARP4 (Homo sapiens, UniProt Q9UKK3). The experiment in a line: competition of probe […] photoaffinity pull-down in HeLa lysate by unlabeled olaparib ([…]), MS. The class given is cell-based.
Chain of PARP4 (Q9UKK3 whole entry): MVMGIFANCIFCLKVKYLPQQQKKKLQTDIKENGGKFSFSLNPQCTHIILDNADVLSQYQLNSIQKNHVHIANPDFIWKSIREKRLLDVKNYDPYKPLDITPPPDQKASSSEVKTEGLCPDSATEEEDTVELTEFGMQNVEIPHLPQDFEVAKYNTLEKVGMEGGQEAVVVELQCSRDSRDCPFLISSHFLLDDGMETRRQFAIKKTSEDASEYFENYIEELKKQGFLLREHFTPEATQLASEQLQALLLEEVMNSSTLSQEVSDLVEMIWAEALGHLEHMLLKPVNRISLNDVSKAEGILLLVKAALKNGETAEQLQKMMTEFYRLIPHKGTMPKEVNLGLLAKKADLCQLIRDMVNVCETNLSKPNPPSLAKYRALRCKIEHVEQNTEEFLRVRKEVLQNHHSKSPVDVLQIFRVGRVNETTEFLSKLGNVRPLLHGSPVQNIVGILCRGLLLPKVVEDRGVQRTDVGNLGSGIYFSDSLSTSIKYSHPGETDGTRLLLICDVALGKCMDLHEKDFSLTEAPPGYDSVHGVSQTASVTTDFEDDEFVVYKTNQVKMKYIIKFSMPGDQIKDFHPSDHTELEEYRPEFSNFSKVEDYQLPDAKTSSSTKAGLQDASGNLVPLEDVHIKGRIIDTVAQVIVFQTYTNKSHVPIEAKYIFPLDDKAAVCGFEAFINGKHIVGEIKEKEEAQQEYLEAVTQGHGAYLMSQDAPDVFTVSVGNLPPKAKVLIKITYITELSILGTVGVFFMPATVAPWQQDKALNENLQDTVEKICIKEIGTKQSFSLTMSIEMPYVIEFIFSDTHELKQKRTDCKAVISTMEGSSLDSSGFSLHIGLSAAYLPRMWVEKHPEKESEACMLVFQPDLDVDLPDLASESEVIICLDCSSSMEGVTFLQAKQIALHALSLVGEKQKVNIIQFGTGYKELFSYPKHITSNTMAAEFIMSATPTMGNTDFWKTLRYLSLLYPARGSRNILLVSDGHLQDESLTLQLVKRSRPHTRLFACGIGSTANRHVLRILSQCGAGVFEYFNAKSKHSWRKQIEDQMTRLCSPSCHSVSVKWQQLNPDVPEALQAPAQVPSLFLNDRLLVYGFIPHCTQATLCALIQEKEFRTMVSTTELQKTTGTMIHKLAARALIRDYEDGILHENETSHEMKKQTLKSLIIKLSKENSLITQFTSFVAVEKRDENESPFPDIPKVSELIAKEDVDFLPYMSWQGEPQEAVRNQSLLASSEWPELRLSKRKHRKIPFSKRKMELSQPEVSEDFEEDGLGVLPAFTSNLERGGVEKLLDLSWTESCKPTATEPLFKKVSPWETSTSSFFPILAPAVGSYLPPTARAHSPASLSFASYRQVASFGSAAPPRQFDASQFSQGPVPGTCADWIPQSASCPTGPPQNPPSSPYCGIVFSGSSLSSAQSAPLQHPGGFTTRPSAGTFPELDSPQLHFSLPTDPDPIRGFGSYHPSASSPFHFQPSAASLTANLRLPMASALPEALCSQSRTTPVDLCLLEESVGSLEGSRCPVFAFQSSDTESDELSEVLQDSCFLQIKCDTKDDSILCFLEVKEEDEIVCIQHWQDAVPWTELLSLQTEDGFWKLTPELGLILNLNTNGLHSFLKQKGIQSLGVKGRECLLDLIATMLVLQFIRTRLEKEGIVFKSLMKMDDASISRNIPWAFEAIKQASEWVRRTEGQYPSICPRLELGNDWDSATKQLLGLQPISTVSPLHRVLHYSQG

pIC50: −log10 of the molar value.

Chain of PARP1 (P09874 2-1014): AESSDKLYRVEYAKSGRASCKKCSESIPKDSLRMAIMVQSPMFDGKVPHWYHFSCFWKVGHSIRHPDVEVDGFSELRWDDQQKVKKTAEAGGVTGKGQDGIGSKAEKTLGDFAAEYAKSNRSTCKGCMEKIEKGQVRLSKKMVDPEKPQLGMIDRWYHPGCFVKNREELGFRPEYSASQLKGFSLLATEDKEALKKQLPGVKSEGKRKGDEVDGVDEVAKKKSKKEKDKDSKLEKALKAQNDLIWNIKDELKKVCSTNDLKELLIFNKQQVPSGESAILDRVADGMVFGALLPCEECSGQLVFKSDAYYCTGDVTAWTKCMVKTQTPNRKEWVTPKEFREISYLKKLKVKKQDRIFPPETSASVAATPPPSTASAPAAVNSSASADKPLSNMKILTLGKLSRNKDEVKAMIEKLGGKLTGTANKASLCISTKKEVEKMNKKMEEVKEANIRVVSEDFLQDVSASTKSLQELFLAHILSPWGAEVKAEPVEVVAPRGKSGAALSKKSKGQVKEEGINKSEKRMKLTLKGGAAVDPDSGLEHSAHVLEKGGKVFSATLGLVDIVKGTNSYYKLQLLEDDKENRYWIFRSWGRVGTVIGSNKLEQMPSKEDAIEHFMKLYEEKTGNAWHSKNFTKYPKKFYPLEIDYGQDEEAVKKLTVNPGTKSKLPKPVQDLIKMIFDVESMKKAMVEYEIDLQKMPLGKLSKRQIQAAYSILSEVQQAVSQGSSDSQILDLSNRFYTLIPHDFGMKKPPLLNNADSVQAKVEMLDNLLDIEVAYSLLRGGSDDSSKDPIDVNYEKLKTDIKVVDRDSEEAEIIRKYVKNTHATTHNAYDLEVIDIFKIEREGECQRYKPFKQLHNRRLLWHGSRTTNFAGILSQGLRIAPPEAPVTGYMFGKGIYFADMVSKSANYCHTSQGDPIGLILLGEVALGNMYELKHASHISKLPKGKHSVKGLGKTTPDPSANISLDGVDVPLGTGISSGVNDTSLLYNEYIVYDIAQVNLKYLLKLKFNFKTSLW

In the case of `O=C(CCCC[C@@H]1SC[C@@H]2NC(=O)N[C@@H]21)NCCOCCOCCOCCn1cc(CCCCC2(CCC(=O)N3CCN(C(=O)c4cc(Cc5n[nH]c(=O)c6ccccc56)ccc4F)CC3)N=N2)nn1` [compound 4, probe 4], the pIC50 on PARP1 is 5.42. Besides, the “photoaffinity labeling, streptavidin pull-down and MS in HeLa lysate, enriched o” value at CDK8 is “CDK8 and its paralogue CDK19, both transcriptional regulators, were identified in our screening as direct olaparib interactors”. Turning to `O=C(c1cc(Cc2n[nH]c(=O)c3ccccc23)ccc1F)N1CCN(C(=O)C2CC2)CC1` [olaparib], the “competition of probe 4 photoaffinity pull-down in HeLa lysate by unlabeled olapa” value at PARP4 was “This concentration‐dependent competition demonstrates the specificity of these interactions for the olaparib pharmacophore”.

What is called pIC50 is −log10 of the IC50, conventionally taken in molar units. Lower therefore signals a high IC50.
